Reference: ChEMBL document CHEMBL1136064, “The synthesis and characterization of BMS-204352 (MaxiPost) and related 3-fluorooxindoles as openers of maxi-K potassium channels” (Bioorg Med Chem Lett, 2002)
Where “and” joins values, the source holds several entries; their conditions need not be identical. Identical values can stand only once. Blank lines part the entries; values can stand above or below the compound they belong to.

Assays:
[1] = test system: HEK293; test: Tested for the effect on whole cell maxi-K current in HEK 293 cells at 100 nM; assay type: functional, Homo sapiens; set-up: unit not given here
[2] = target: Calcium-activated potassium channel subunit alpha-1 KCNMA1 (Homo sapiens) (UniProt Q12791); test: Evaluation of maxi-K opening in Xenopus laevis oocytes injected with Hslo1 channels as percent of control current at a concentration of 20 uM; conditions: Oocyte
Calcium-activated potassium channel subunit alpha-1 KCNMA1 (Homo sapiens), sequence (Q12791 whole entry, looked up): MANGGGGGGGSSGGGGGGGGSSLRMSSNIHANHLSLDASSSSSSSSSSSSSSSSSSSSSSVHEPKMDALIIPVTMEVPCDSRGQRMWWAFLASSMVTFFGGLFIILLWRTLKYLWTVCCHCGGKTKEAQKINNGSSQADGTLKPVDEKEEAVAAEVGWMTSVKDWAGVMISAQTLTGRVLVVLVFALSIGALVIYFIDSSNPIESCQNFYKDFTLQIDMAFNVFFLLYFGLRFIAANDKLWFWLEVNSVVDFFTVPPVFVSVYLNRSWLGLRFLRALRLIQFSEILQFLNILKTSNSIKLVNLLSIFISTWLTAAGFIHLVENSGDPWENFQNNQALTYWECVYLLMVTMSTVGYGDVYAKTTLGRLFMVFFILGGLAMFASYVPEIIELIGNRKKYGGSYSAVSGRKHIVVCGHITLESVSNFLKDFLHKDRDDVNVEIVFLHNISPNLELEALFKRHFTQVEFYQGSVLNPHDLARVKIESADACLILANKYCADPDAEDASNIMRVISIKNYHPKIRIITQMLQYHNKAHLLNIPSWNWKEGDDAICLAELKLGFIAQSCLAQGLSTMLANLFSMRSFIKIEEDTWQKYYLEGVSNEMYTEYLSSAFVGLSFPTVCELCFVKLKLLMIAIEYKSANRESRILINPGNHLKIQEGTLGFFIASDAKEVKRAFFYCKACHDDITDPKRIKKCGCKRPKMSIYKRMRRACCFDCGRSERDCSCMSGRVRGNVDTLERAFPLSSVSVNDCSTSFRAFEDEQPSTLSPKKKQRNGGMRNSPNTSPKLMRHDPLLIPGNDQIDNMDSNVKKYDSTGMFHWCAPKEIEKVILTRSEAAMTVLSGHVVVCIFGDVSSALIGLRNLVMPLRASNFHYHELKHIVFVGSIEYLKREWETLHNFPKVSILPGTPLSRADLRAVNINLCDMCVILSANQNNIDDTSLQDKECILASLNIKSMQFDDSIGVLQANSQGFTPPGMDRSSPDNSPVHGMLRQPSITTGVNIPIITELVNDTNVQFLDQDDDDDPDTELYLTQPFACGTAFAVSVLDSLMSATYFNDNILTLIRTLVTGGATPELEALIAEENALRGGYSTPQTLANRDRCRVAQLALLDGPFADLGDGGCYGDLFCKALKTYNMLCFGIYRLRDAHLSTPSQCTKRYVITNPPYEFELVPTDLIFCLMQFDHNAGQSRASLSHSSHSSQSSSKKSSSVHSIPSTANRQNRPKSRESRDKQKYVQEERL

[3] = test system: HEK293; test: Tested for the effect on whole cell maxi-K current in HEK 293 cells at 10 nM; assay type: functional, Homo sapiens
[4] = test system: HEK293; test: Tested for the effect on whole cell maxi-K current in HEK 293 cells at 1000 nM; assay type: functional, Homo sapiens
[5] = Evaluated for AUC after iv administration of 1 mg/kg to male Sprague-Dawley rats in plasma; assay type: ADME, organism-based; set-up: dose 1 mg/kg, route intravenous; conditions: rat
[6] = Ratio of brain AUC versus plasma AUC; assay type: ADME, cell-free; conditions: rat
[7] = Evaluated for Volume of distribution after iv administration of 5 mg/kg to male Sprague-Dawley rats; assay type: ADME, organism-based; set-up: dose 5 mg/kg, route intravenous; conditions: rat, in vivo, read-out: Volume of distribution
[8] = Evaluated for half-life after iv administration of 5 mg/kg to male Sprague-Dawley rats in plasma; assay type: ADME, organism-based; set-up: dose 5 mg/kg, route intravenous; conditions: rat
[9] = Evaluated for AUC after iv administration of 5 mg/kg to male Sprague-Dawley rats in brain; assay type: ADME, organism-based; set-up: dose 5 mg/kg, route intravenous; conditions: rat
[10] = Evaluated for plasma clearance after iv administration of 5 mg/kg to male Sprague-Dawley rats; assay type: ADME, organism-based; set-up: dose 5 mg/kg, route intravenous; conditions: rat
[11] = Evaluated for half-life after iv administration of 1 mg/kg to male Sprague-Dawley rats in plasma; assay type: ADME, organism-based; set-up: dose 1 mg/kg, route intravenous; conditions: rat
[12] = Evaluated for AUC after iv administration of 5 mg/kg to male Sprague-Dawley rats in plasma; assay type: ADME, organism-based; set-up: dose 5 mg/kg, route intravenous; conditions: rat
[13] = Evaluated for half-life after iv administration of 5 mg/kg to male Sprague-Dawley rats in brain; assay type: ADME, organism-based; set-up: dose 5 mg/kg, route intravenous; conditions: rat
[14] = target: Calcium-activated potassium channel subunit alpha-1 KCNMA1 (Homo sapiens) (UniProt Q12791); test: Evaluation of maxi-K opening in Xenopus laevis oocytes injected with Hslo1 channels as percent of control current at 20 uM; conditions: Oocyte

Compound: COc1ccc(Cl)cc1C1(F)C(=O)Nc2c(C(F)(F)F)cccc21 (stereo not drawn)
Maxi-K current [1]: 131.9 and 169.6

Compound: COc1ccc(Cl)cc1[C@@]1(F)C(=O)Nc2cc(C(F)(F)F)ccc21
Maxi-K current [3]: 105
Maxi-K current [1]: 164.4
Maxi-K current [4]: 205.3

Compound: O=C1Nc2ccccc2C1(F)c1ccccc1 (stereo not drawn)
remaining activity at 20 µM [14]: 100%

The next lines start with results.

remaining activity at 20 µM [2]: 107%
Compound: O=C1Nc2cc(C(F)(F)F)ccc2C1(F)c1ccccc1 (stereo not drawn)

AUC [5]: 320 ng·h/mL
Kp [6]: 9.6
Vd [7]: 5.8 L/kg
half-life [8]: 1.9 h
AUC [9]: 28800 ng·h/mL
clearance [10]: 51.5 mL/min/kg
half-life [11]: 1.8 h
AUC [12]: 3000 ng·h/mL
half-life [13]: 1.6 h
Compound: COc1ccc(Cl)cc1[C@]1(F)C(=O)Nc2cc(C(F)(F)F)ccc21 [FLINDOKALNER]
Maxi-K current [3]: 127.8
Maxi-K current [1]: 185.3
Maxi-K current [4]: 247.4
